According to US4282248A, “Pinene derivatives and pharmaceutical compositions containing the same” (priority 1978, dated 1981):

Experiments:
Type in all cases: in vivo
[1] = acetic acid induced writhing test (mouse writhing); conditions: for ED50: Mus musculus
Protocol: (§1) The analgetic activity was tested by the acetic acid induced writhing test (Sofia et al., J. Pharmacol.Expt.Therap. 18, 646, 1973), by the tail flick test (Grotto et al., Arch Intern.Pharmacodyn. 170, 257, 1967) and by the foot pressure test (Randall and Selito, Arch, Int. Pharmacodyn. 409, 1957). The central nervous system action was tested by the mouse ring test (Pertwee, Brit. J. Pharmacol. 46, 753, 1972).

[2] = tail flick test (mouse tail flick); conditions: for ED50: Mus musculus
Protocol: as §1

[3] = foot pressure test (rat foot pressure); conditions: for ED50: Rattus norvegicus
Protocol: as §1

For `CCCCCCC(C)(C)c1cc(OC(C)=O)c(C2C=C(COC(C)=O)C3CC2C3(C)C)c(OC(C)=O)c1` (single isomer, unassigned) [VIIIa(+), 4-Trans-[2-(5-(1,1-dimethylheptyl)-resorcyl)]-10-hydroxy-pin-2-ene triacetate], the ED50 [1] was 18 mg/kg, the ED50 [2] was 50 mg/kg and the ED50 [3] was 50 mg/kg.

For `CCCCCCC(C)(C)c1cc(OC(C)=O)c(C2C=C(COC(C)=O)C3CC2C3(C)C)c(OC(C)=O)c1` (single isomer, unassigned) [VIIIa(-), 4-trans-[2-(5-(1,1-dimethylheptyl)-resorcyl)]-10-hydroxy-pin-2-ene, triacetate], the “Mouse writhing ED50” value [1] was 18 mg/kg, the “Mouse tail flick ED50” value [2] was 30 mg/kg and the “Rat foot pressure ED50” value [3] was 50 mg/kg.

With `CCCCCC(C)C(C)c1cc(OC(C)=O)c(C2C=C(COC(C)=O)C3CC2C3(C)C)c(OC(C)=O)c1` (single isomer, unassigned) [VIIIb(+), 4-Trans-[2-(5-(1,2-dimethylheptyl-resorcyl)]-10-hydroxy-pin-2-ene, triacetate] the ED50 [1] was 10 mg/kg, the ED50 [2] was 50 mg/kg and the ED50 [3] was 50 mg/kg.

With `CCCCCC(C)C(C)c1cc(OC(C)=O)c(C2C=C(COC(C)=O)C3CC2C3(C)C)c(OC(C)=O)c1` (single isomer, unassigned) [VIIIb(-), 4-trans-[2-(5-(1,2-dimethylpheptyl)]-resorcyl)-10-hydroxy-pin-2-ene, triacetate] the “Mouse writhing ED50” value [1] was 10 mg/kg, the “Mouse tail flick ED50” value [2] was 30 mg/kg and the “Rat foot pressure ED50” value [3] was 50 mg/kg.

`CCCCCCC(C)(C)c1cc(OC(C)=O)c(C2C=C(COC(=O)C(C)(C)C)C3CC2C3(C)C)c(OC(C)=O)c1` (single isomer, unassigned) [VIIIc(+)] gave an ED50 [1] of 25 mg/kg, an ED50 [2] of over 50 mg/kg and an ED50 [3] of over 50 mg/kg.

For `CCCCCCC(C)(C)c1cc(OC(C)=O)c(C2C=C(COC(=O)C(C)(C)C)C3CC2C3(C)C)c(OC(C)=O)c1` (single isomer, unassigned) [VIIIc(-)], the “Mouse writhing ED50” value [1] was 25 mg/kg, the “Mouse tail flick ED50” value [2] was over 50 mg/kg and the “Rat foot pressure ED50” value [3] was over 50 mg/kg.

`CCCCCC(C)C(C)c1cc(OC(C)=O)c(C2C=C(COC(=O)C(C)(C)C)C3CC2C3(C)C)c(OC(C)=O)c1` (single isomer, unassigned) [VIIId(+), 4-trans-[2-(5-(1,2-dimethylheptyl)-resorcyl diacetate)]-10-hydroxy-pin-2-ene-10-pivalate] showed an ED50 [1] of 25 mg/kg, an ED50 [2] of over 50 mg/kg and an ED50 [3] of over 50 mg/kg.

With `CCCCCC(C)C(C)c1cc(OC(C)=O)c(C2C=C(COC(=O)C(C)(C)C)C3CC2C3(C)C)c(OC(C)=O)c1` (single isomer, unassigned) [VIIId(-), 4-trans-[2-(5-(1,2-dimethylheptyl)-resorcyl diacetate)]-10-hydroxy-pin-2-ene-10-pivalate] the “Mouse writhing ED50” value [1] was 25 mg/kg, the “Mouse tail flick ED50” value [2] was over 50 mg/kg and the “Rat foot pressure ED50” value [3] was over 50 mg/kg.

In the case of `CCCCCCC(C)(C)c1cc(O)c(C2C=C(CO)C3CC2C3(C)C)c(O)c1` (single isomer, unassigned) [VIIa(+), 4-Trans-[2-(5-(1,1-dimethylheptyl)-resorcyl)]-10-hydroxy-pin-2-ene], the ED50 [1] is reported as 5 mg/kg, the “Mouse tail flick ED50” value [2] is reported as 30 mg/kg and the ED50 [3] is reported as 15 mg/kg.

With `CCCCCCC(C)(C)c1cc(O)c(C2C=C(CO)C3CC2C3(C)C)c(O)c1` (single isomer, unassigned) [VIIa(-), 4-trans-[2-(5-(1,1-dimethylheptyl)-resorcyl)]-10-hydroxy-pin-2-ene] the “Mouse writhing ED50” value [1] was 7 mg/kg, the “Mouse tail flick ED50” value [2] was 6 mg/kg and the “Rat foot pressure ED50” value [3] was 25 mg/kg.

For `CCCCCC(C)C(C)c1cc(O)c(C2C=C(CO)C3CC2C3(C)C)c(O)c1` (single isomer, unassigned) [VIIb(+), 4-Trans[2-(5-(1,2-dimethylheptyl)-resorcyl)]-10-hydroxy-pin-2-ene], the ED50 [1] was 5 mg/kg, the “Mouse tail flick ED50” value [2] was 30 mg/kg and the ED50 [3] was 15 mg/kg.

In the case of `CCCCCC(C)C(C)c1cc(O)c(C2C=C(CO)C3CC2C3(C)C)c(O)c1` (single isomer, unassigned) [VIIb(-), 4-Trans-[2-(5-(1,2-dimethyheptyl)-resorcyl)]-10-hydroxy-pin-2-ene], the “Mouse writhing ED50” value [1] is reported as 7 mg/kg, the “Mouse tail flick ED50” value [2] is reported as 6 mg/kg and the “Rat foot pressure ED50” value [3] is reported as 25 mg/kg.

With `CCCCCCC(C)(C)c1cc(O)c(C2C=C(COC(C)=O)C3CC2C3(C)C)c(O)c1` (single isomer, unassigned) [VIa(+)] the ED50 [1] was 10 mg/kg, the “Mouse tail flick ED50” value [2] was 30 mg/kg and the ED50 [3] was 35 mg/kg.

With `CCCCCCC(C)(C)c1cc(O)c(C2C=C(COC(C)=O)C3CC2C3(C)C)c(O)c1` (single isomer, unassigned) [VIa(-)] the “Mouse writhing ED50” value [1] was 10 mg/kg, the “Mouse tail flick ED50” value [2] was 10 mg/kg and the “Rat foot pressure ED50” value [3] was 25 mg/kg.

For `CCCCCC(C)C(C)c1cc(O)c(C2C=C(COC(C)=O)C3CC2C3(C)C)c(O)c1` (single isomer, unassigned) [VIb(+)], the ED50 [1] was 10 mg/kg, the “Mouse tail flick ED50” value [2] was 30 mg/kg and the ED50 [3] was 35 mg/kg.

In the case of `CCCCCC(C)C(C)c1cc(O)c(C2C=C(COC(C)=O)C3CC2C3(C)C)c(O)c1` (single isomer, unassigned) [VIb(-)], the “Mouse writhing ED50” value [1] is reported as 10 mg/kg, the “Mouse tail flick ED50” value [2] is reported as 10 mg/kg and the “Rat foot pressure ED50” value [3] is reported as 25 mg/kg.

Work on `CCCCCCC(C)(C)c1cc(O)c(C2C=C(COC(=O)C(C)(C)C)C3CC2C3(C)C)c(O)c1` (single isomer, unassigned) [VIc(+)] yielded an ED50 [1] of 10 mg/kg and an ED50 [3] of 30 mg/kg.

For `CCCCCCC(C)(C)c1cc(O)c(C2C=C(COC(=O)C(C)(C)C)C3CC2C3(C)C)c(O)c1` (single isomer, unassigned) [VIc(-)], the “Mouse writhing ED50” value [1] was under 10 mg/kg, the “Mouse tail flick ED50” value [2] was 10 mg/kg and the “Rat foot pressure ED50” value [3] was 30 mg/kg.

In the case of `CCCCCC(C)C(C)c1cc(O)c(C2C=C(COC(=O)C(C)(C)C)C3CC2C3(C)C)c(O)c1` (single isomer, unassigned) [VId(+), 4-trans-[2-(5-(1,2-dimethylheptyl)-resorcyl)]-10-hydroxy-pin-2-ene, 10 pivalate], the ED50 [1] is reported as 10 mg/kg and the ED50 [3] is reported as 30 mg/kg.

For `CCCCCC(C)C(C)c1cc(O)c(C2C=C(COC(=O)C(C)(C)C)C3CC2C3(C)C)c(O)c1` (single isomer, unassigned) [VId(-), 4-trans-[2-(5-(1,2-dimethylheptyl)-resorcyl)]-10-hydroxy-pin-2-ene, 10 pivalate], the “Mouse writhing ED50” value [1] was under 10 mg/kg, the “Mouse tail flick ED50” value [2] was 10 mg/kg and the “Rat foot pressure ED50” value [3] was 30 mg/kg.

`CCCCCC(C)C(C)c1cc(O)c(C2CC(C)C3CC2C3(C)C)c(O)c1` (single isomer, unassigned) [Xb(-), 4-Trans-[-(5-(1,2-dimethylheptyl)-resorcyl)]-pinane] showed an ED50 [1] of 6 mg/kg, an ED50 [2] of about 50 mg/kg and an ED50 [3] of about 50 mg/kg.

With `CCCCCCC(C)(C)c1cc(O)c(C2CC(C)C3CC2C3(C)C)c(O)c1` (stereo not drawn) [Xa(+), 4-Trans-[2-(5-(1,1-dimethylheptyl)-resorcyl)]-pinane] the “Mouse writhing ED50” value [1] was 15 mg/kg, the “Mouse tail flick ED50” value [2] was ~ 50 mg/kg and the “Rat foot pressure ED50” value [3] was ~ 50 mg/kg.

With `CCCCCCC(C)(C)c1cc(O)c(C2CC(C)C3CC2C3(C)C)c(O)c1` (stereo not drawn) [Xa(-), 4-trans-[2-(5-(1,1-dimethylheptyl)-resorcyl)]-pinane] the “Mouse writhing ED50” value [1] was 9 mg/kg, the “Mouse tail flick ED50” value [2] was ~ 50 mg/kg and the “Rat foot pressure ED50” value [3] was ~ 50 mg/kg.

In the case of `CCCCCC(C)C(C)c1cc(O)c(C2CC(C)C3CC2C3(C)C)c(O)c1` (stereo not drawn) [Xb(+), 4-Trans-[-(5-(1,2-dimethylheptyl)-resorcyl)]-pinane], the “Mouse writhing ED50” value [1] is reported as 6 mg/kg, the “Mouse tail flick ED50” value [2] is reported as ~ 50 mg/kg and the “Rat foot pressure ED50” value [3] is reported as ~ 50 mg/kg.
